Entries after “also recorded” stand apart in the source; their conditions may differ. Where two headings read alike, the source gives them in different places.

Data set [1] addresses T1, recombinant human serotonin transporter (hSERT) (Homo sapiens, UniProt P31645).
T1 construct: expressed in transfected cells
The data set can be described thus: [125I]RTI-55 binding, HEK-hSERT.

Data set [2] concerns the target T2, recombinant human dopamine transporter (hDAT) (Homo sapiens, UniProt Q01959).
T2 construct: expressed in transfected cells
The data set can be described thus: [125I]RTI-55 binding, HEK-hDAT.

In data set [3] the test system is P. yoelii (K). The data set can be described thus: Curative efficacy vs patent infection, three once-daily doses (adapted 6-day Thompson test). To be noted: ig, three once-daily doses.
For data set [4], the system named is CQ-sensitive P. falciparum D6. In words: Fixed-ratio combination (isobologram) with quinine, D6. It is filed as cell-based. To be noted: isobolar analysis. How it is done:
In one embodiment, synergism is assessed herein using fixed-ratio combinations that provide information over a wide range of drug concentrations. In this method, the two drugs are mixed in an appropriate ratio, serial dilutions of the combined solution are used for testing, and results compared to each drug alone. Specifically, to determine synergy, the acridone is tested in combination with a second drug using a modification of the fixed-ratio method described by Fivelman et al. (See, Fivelman et al., Antimicrob. Agents Chemother. 48, 4097-4102 (2004) and Winter et al., Antimicrob. Agents Chemother. 41, 1449-1454 (1997), both references incorporated herein, in their entirety, by reference). […] If these stock solutions were termed Drug A and Drug B, then six final stock solutions were prepared from this initial stock: Drug A alone, Drug B alone, and volume:volume mixtures of Drug A and B in the following ratios: 4:1, 3:2, 2:3, and 1:4. Two-fold dilutions of each of the six final stock solutions were done robotically across a 96-well plate in quadruplicate. […] The data pointed from all six curves were then analyzed using Calcusyn software (commercially available from BioSoft, Cambridge, UK) for determination of synergy. Output from this analysis included FIC values used to plot isobolograms as well as a rigorously determined synergy index, termed the combination index (CI) (Calcusyn). […]

The test system of data set [5] is MDR Dd2 strain of P. falciparum. In words: In vitro antimalarial activity, SYBR Green MSF assay, Dd2. It is filed as cell-based. Conditions: Plasmodium falciparum, DD2. The text has this: This example describes the screening of disclosed antimalarial acridones against the CQ-sensitive D6 strain and the MDR Dd2 strain of P. falciparum for in vitro antimalarial activity.
As shown in Table 3 and Table 4, selected soluble acridone derivatives were screened for antimalarial activity against the CQ-sensitive D6 and the MDR Dd2 strains of P. falciparum.

The subject of data set [6] is murine splenic lymphocytes (MSLCs). The data set can be described thus: Cytotoxicity by Alamar Blue assay. To be noted: for IC50: cytotoxicity. On the technique in general: Resazurin is reduced to fluorescent resorufin, in cell work by metabolically active cells.
The subject of data set [7] is MDR P. falciparum Dd2. In words: Fixed-ratio combination (isobologram) with quinoline antimalarials, Dd2. It is filed as cell-based. As to the method:
In one embodiment, synergism is assessed herein using fixed-ratio combinations that provide information over a wide range of drug concentrations. […] If these stock solutions were termed Drug A and Drug B, then six final stock solutions were prepared from this initial stock: Drug A alone, Drug B alone, and volume:volume mixtures of Drug A and B in the following ratios: 4:1, 3:2, 2:3, and 1:4. Two-fold dilutions of each of the six final stock solutions were done robotically across a 96-well plate in quadruplicate. Subsequent steps were typical of standard drug-susceptibility methods. […] The data pointed from all six curves were then analyzed using Calcusyn software (commercially available from BioSoft, Cambridge, UK) for determination of synergy. Output from this analysis included FIC values used to plot isobolograms as well as a rigorously determined synergy index, termed the combination index (CI) (Calcusyn). FIC50 isobolograms, CI's and tabulation of IC90 component drug concentrations were reported.
The combinations of the acridones T3.5 and T2 with quinine were assessed for synergism.
FIG. 6 is an isobologram charting the efficacy of quinine in combination with T3.5 in vitro against CQ-sensitive (D6) and MDR (Dd2) P. falciparum.

Data set [8] relates to P. yoelii. The data set can be described thus: Hemozoin in PRBCs of treated infected mice. It is filed as in vivo. As to the method:
(§1) P. falciparum Dd2 MDR parasited red cells were synchronized to the ring stage by sorbitol lysis and incubated the cells in the presence or absence of 300 nM T3.5. […] P. yoelii infected mice treated with T3.5 harbor PRBCs that lack hemozoin. Taken together these observations are consistent with the notion that T3.5 blocks hemozoin formation in infected cells.

Data set [9] in a line: In vitro heme aggregation assay. To be noted: 25 mM phosphate buffer, pH 4.8, 30 minutes at room temperature. As to the method:
This example describes the in vitro inhibition of heme aggregation by xanthone 2,3,4,5,6-pentahydroxyxanthone. Conditions: 25 mM Phosphate buffer, pH 5.2, 1 hour incubation at 37° C. Further details of this assay are described by Ignatushchenko et al. in Xanthones as antimalarial agents; studies of a possible mode of action.
This example describes visual evidence that acridones disclosed herein form soluble complexes with heme under mildly acidic conditions. […] Employing the same assay conditions, heme was mixed with T2 or T3.5 under mildly acidic conditions (25 mM phosphate buffer, pH 4.8) and monitored. […] Without being limited to theory, it is believed that for some compounds inhibition of heme aggregation in vitro can be correlated with inhibition of hemozoin formation in vivo.

For data set [10], the system named is P. falciparum Dd2 MDR. The data set can be described thus: Morphology of synchronized Dd2 parasitized red cells. It is filed as cell-based. Conditions: 300 nM; 36 hours of incubation; vs controls. As to the method:
as §1

T1 sequence (P31645 whole entry): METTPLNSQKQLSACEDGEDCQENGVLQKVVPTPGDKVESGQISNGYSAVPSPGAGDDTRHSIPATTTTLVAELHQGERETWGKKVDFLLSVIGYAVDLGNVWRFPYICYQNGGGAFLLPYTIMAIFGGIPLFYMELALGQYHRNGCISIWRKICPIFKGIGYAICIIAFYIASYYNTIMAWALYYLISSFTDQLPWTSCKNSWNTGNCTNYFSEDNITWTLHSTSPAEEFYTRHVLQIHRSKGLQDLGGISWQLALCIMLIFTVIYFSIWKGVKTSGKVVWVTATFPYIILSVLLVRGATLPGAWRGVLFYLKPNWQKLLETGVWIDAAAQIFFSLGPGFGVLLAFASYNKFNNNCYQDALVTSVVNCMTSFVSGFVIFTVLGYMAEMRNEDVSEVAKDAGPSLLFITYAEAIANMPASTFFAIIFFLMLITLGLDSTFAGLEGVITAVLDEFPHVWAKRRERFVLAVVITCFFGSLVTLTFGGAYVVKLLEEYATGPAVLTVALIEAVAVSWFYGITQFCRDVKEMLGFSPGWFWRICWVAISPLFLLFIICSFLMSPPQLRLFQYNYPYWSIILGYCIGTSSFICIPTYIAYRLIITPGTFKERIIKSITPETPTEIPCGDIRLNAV
T2 sequence (Q01959 whole entry): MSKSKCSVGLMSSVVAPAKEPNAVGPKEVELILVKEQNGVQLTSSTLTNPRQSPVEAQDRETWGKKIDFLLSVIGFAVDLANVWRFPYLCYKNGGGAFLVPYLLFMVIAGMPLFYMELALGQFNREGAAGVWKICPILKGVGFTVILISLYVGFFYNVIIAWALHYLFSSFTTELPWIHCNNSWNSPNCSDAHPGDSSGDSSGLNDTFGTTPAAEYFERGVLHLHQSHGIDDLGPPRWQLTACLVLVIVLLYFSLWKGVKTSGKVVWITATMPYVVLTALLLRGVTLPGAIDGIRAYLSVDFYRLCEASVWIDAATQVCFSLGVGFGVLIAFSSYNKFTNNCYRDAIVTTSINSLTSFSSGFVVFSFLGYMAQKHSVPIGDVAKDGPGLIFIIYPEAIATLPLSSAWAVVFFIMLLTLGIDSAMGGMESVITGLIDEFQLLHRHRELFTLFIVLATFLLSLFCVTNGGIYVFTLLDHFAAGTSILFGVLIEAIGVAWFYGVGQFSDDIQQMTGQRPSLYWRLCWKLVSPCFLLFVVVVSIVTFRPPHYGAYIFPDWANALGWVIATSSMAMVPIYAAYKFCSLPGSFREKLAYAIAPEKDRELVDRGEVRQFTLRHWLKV

Take `CCN(CC)CCOc1ccc2c(=O)c3ccc(Cl)cc3n(CCN(CC)CC)c2c1` [T3.5, 3-(2-diethylaminoethoxy)-6-chloro-10-(2-diethylaminoethyl)-9-acridone]: the results for the Ki in data set [1] and in data set [2] were 2290 nM and greater than 10000 nM, respectively. The “ED50 and ED90, gavage (ig) dosing, in words” value in data set [3] is on record as “comparable”. The interaction with quinine result was “synergism” in data set [4] and “synergism; also recorded: synergistic” in data set [7] (isobolar analysis). Moreover, the IC50 (in general, the concentration that gives 50% inhibition) in [5] (Table 2, average of 4 independent experiments, read-out: IC50, Dd2) was 58 nM; in data set [5] (Table 4, read-out: IC50 P. falciparum Dd2), 77 nM; in data set [6] (read-out: IC50, MSLCs, Table 2), greater than 25000 nM; in data set [6] (read-out: IC50 MSLCs, Table 4) it was greater than 25000 nM. The “cytotoxicity at the highest tested concentration” value in [6] (25 μM) is recorded as “no evidence of cytotoxicity”. In data set [6] (ratio of cytotoxicity IC50 (vs. MSLCs) to antimalarial IC50 against D6), the IVTI is recorded as greater than 500. Further, the “interaction with CQ” value in data set [7] (isobolar analysis) was “synergistic”. The interaction with amodiaquine result in data set [7] (isobolar analysis) is on record as “synergistic”. The interaction with mefloquine entry in data set [7] (isobolar analysis) is “not”. For the same molecule, in data set [7] (with 7-70 nM quinine), the “T3.5 concentration giving 90% growth inhibition in combination” value was in the range of 20 to 200 nM. Moreover, the “hemozoin in PRBCs” value in data set [8] was “lack hemozoin”. Besides, the “formation of heme aggregates” value in data set [9] is “prevent the formation of heme aggregates”. The visible hemozoin entry in [10] was “markedly diminished”.

These data come from patent US9399625B2, “Acridone compounds” (Oregon Health & Science University, priority 2006, dated 2016).
